Test results from patent EP3653608A1, “ISOQUINOLINE BIARYL COMPOUNDS, A PHARMACEUTICAL COMPOSITION COMPRISING THE SAME, AND USES THEREOF” (Ludwig-Maximilians-Universität München, priority 2018, dated 2020).
Entries after “also recorded” stand apart in the source; their conditions may differ. Like-named read-outs stand apart in the source and are kept apart here. Values belong to the compound of their own block, whether it stands above or below them.

Tests used:
microtubule network = test: Microtubule perturbation in cellulo, immunofluorescence staining of α-tubulin; assay type: cell-based, human; settings: HeLa cells, 24 h incubation, A-2 in PBS, A-3 with 0.25% DMSO cosolvent
HL60 cell line = test: Antiproliferative MTT assay, HL60 cell line; assay type: cell-based; settings: Homo sapiens, HL-60, 48 h incubation
Balb/c mice = test: Safe dosing parameters in vivo in mice
[1] = tested on: tubulin polymerisation dynamics; test: Inhibition of tubulin polymerisation dynamics in cellulo, confocal video microscopy of EB3-YFP comets; assay type: cell-based, human; settings: 0.24 µM, live HeLa cells expressing EB3-YFP
Excerpt: In videos this marker manifests as bright well-defined moving "comets", and in still images as bright elongated streaks, when MTs are polymerising normally as in the control image (frame "ctrl"). […] "DMSO ctrl" denotes the cosolvent control for the A-3 images (i.e. 0.25% DMSO but no compound) while "PBS ctrl" denotes the control for the A-2 images (no compound or cosolvent applied); these controls show the expected structure of the microtubule network when no inhibition is applied.

HeLa cells = test: Cell cycle analysis by flow cytometry, propidium iodide staining; assay type: cell-based, human; settings: 24 h incubation, propidium iodide DNA staining, phosphate
HeLa cell line = test: Antiproliferative MTT assay, HeLa cell line; assay type: cell-based; settings: Homo sapiens
[2] = human, 40 min, 2 uM
[3] = Metabolic stability in mouse liver microsomes; settings: 2 uM, over 40 minutes, 37°C
CYP2C19 = CYP2C19 (Homo sapiens, UniProt P33261); test: Cytochrome P450 inhibition with fluorogenic substrate, CYP2C19; settings: CYP2C19, 10 µM, 10 minute preincubation, 60 min reaction
CYP2C19, sequence (P33261 whole entry): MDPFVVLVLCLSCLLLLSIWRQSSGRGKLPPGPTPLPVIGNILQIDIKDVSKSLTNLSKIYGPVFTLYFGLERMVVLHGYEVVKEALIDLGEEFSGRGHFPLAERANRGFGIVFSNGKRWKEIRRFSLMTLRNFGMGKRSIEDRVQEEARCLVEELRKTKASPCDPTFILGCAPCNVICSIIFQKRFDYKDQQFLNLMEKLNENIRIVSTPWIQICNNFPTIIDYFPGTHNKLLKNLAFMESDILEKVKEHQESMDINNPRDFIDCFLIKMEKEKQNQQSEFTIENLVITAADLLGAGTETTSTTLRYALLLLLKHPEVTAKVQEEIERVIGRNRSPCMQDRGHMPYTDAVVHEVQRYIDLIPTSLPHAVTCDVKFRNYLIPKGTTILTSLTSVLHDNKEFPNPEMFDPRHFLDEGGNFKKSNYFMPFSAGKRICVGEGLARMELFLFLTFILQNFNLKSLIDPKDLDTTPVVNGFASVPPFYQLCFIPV

physchem = settings: pH 7.4
CYP1A2 = molecular target: T1, CYP1A2 (Homo sapiens, UniProt P05177); test: Cytochrome P450 inhibition with fluorogenic substrate, CYP1A2; settings: CYP1A2, 10 µM, 10 minute preincubation, 25 minute reaction
T1 sequence (P05177 1-516): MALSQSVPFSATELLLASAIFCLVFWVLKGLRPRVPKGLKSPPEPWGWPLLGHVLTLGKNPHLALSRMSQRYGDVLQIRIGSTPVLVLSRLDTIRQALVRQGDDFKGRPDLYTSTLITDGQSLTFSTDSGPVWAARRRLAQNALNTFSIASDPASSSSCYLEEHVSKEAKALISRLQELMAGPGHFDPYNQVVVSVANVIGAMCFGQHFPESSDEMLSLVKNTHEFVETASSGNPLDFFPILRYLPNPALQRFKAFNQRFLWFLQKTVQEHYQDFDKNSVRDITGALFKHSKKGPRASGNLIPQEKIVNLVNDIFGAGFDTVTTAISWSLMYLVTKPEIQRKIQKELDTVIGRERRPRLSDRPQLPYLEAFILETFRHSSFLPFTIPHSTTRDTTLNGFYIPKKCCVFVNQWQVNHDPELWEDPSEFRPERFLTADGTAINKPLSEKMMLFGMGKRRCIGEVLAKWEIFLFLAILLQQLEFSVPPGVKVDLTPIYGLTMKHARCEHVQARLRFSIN

CYP2C9 = CYP2C9 (Homo sapiens, UniProt P11712); test: in vitro; settings: probe fluorogenic CYP substrate (not named)
CYP2C9, sequence (P11712 whole entry): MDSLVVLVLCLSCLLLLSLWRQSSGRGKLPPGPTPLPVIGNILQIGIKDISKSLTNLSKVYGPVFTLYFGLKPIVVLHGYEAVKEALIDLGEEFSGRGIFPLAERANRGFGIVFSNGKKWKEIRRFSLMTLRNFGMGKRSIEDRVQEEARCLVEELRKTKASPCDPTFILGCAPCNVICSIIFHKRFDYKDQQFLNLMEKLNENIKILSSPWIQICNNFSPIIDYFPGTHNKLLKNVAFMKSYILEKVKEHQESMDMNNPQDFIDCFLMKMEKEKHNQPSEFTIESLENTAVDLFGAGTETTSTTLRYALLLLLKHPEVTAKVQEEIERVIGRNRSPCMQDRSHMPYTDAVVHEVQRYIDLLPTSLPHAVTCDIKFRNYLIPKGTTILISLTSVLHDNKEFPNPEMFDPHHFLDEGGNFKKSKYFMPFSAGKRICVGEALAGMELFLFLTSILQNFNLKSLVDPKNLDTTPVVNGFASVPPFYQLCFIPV

CYP2D6 = CYP2D6 (Homo sapiens, UniProt P10635); test: in vitro; settings: probe fluorogenic CYP substrate (not named)
CYP2D6, sequence (P10635 whole entry): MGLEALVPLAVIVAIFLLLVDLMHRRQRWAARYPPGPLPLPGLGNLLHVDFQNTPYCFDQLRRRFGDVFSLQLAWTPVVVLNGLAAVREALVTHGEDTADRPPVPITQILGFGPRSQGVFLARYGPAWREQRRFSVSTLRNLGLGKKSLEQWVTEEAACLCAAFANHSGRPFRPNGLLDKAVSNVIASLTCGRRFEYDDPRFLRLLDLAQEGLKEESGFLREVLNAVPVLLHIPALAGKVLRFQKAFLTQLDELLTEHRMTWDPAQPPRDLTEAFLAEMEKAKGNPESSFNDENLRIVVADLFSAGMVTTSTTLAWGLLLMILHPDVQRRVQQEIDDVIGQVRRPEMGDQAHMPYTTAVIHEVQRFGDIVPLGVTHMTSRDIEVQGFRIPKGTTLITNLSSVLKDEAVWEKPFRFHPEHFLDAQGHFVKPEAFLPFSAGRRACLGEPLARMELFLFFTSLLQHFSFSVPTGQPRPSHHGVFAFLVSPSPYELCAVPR

CYP3A4 = CYP3A4 (Homo sapiens, UniProt P08684); test: in vitro; settings: probe fluorogenic CYP substrate (not named)
CYP3A4, sequence (P08684 whole entry): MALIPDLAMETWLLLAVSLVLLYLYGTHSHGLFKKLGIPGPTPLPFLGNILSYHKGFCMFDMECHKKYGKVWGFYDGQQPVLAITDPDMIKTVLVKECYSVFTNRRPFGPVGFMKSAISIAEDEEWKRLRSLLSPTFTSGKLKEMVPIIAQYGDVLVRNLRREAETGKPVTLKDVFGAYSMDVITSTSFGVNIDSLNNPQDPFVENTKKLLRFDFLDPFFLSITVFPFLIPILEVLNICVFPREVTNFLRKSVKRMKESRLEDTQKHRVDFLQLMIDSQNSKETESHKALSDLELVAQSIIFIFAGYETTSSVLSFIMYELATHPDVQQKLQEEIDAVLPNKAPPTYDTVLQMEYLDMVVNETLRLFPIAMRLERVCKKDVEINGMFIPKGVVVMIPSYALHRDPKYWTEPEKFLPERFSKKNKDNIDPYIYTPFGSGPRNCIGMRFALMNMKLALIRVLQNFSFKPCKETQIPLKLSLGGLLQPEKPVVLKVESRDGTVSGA

- IC50 (HL60 cell line): 280 nM
SMILES: COc1ccc2ccnc(-c3cc(OC)c(OC)c(OC)c3)c2c1 [A-3, 7-methoxy-1-(3,4,5-trimethoxyphenyl)isoquinoline]
- microtubule network perturbation (microtubule network): pronounced disorganisation and destruction of the microtubule network

SMILES: COc1cc2c(-c3cc(OC)c(OC)c(OC)c3)nccc2cc1OP(=O)([O-])[O-].[Na+].[Na+] [A-2, disodium 7-methoxy-1-(3,4,5-trimethoxyphenyl)isoquinolin-6-yl phosphate]
- tolerability (Balb/c mice; repeated dosage 25 mg/kg i.p., 3 administrations at 48-hour intervals, Balb/c mice): tolerated compound administration
- tolerability (Balb/c mice; repeated dosage 25 mg/kg i.v., 3 administrations at 48-hour intervals, Balb/c mice): tolerated compound administration
- tolerability (Balb/c mice; single dosage 31.5 mg/kg i.p., male and female Balb/c mice): tolerated by all mice tested
- tolerability (Balb/c mice; single dosage 50 mg/kg i.v., male and female Balb/c mice): tolerated by all mice tested
- microtubule network perturbation (microtubule network; phosphate): pronounced disorganisation and destruction of the microtubule network
- time until the comets stopped and vanished [1]: ≤ 0.5 min
- cell cycle effect (HeLa cells): extensive cell cycle arrest leading to accumulation of cells in the G2/M phase; also recorded: dose-dependently causes accumulation of cells at the G2/M phase
- IC50 (HeLa cell line; HeLa, 48 h): 130 nM

SMILES: Cn1c(=O)c2c(ncn2C)n(C)c1=O [caffeine, reference compound]
- degradation [2]: < 10%

- degradation [3]: 33%
- apparent enhancement of activity (CYP2C19): 50%
- logD (physchem): 2.18
- degradation [2]: 31%
- inhibition (CYP1A2): zero
- inhibition at 25 min, 10 µM (CYP2C9): 13 to 19%
- inhibition at 25 min, 10 µM (CYP2D6): 13 to 19%
- inhibition at 25 min, 10 µM (CYP3A4): 13 to 19%
- IC50 (HeLa cell line; HeLa cell line, MTT assay, 48 h incubation, read-out: IC50): 240 nM
- IC50 (HL60 cell line): 100 nM
SMILES: COc1cc2c(-c3cc(OC)c(OC)c(OC)c3)nccc2cc1O [A-1, 7-methoxy-1-(3,4,5-trimethoxyphenyl)isoquinolin-6-ol]
